Where two headings read alike, the source gives them in different places.
Tests used:
Type in all cases: cell-based
SN12C = test: Screening against cancer cell lines: SN12C (Renal)
Text: (§1) Screening of Benzamide Derivatives Against Cancer Cell Lines Tables 1 and 2 tabulate by way of example the results obtained for compounds (4) and (6).
(§2) 7 renal cancer cell lines were screened against both compound (4) and MS275.

HCT-15 = test: Screening against cancer cell lines: HCT-15 (Colon)
Text: as §1
(§3) 6 colon cancer cell lines were screened against both compound (4) and MS275.

HCC-2998 = test: Screening against cancer cell lines: HCC-2998 (Colon)
Text: as §1, §3

SR = test: Screening against cancer cell lines: SR (Leukaemia); conditions: Leukaemia
Text: as §1

MDA-MB-435 = test: Screening against cancer cell lines: MDA-MB-435 (Breast)
Text: as §1
(§4) 7 breast cancer cell lines were screened against both compound (4) and MS275.

renal cancer cell lines = test: Comparison test versus MS275: 7 renal cancer cell lines; conditions: in 4 cell lines of 7 renal cancer cell lines screened
Text: as §2

UACC-62 = test: Screening against cancer cell lines: UACC-62 (Melanoma)
Text: as §1

UACC-257 = test: Screening against cancer cell lines: UACC-257 (Melanoma)
Text: as §1
(§5) 7 melanoma cancer cell lines were screened against both compound (4) and MS275.

[1] = test system: melanoma cancer cell lines; test: Comparison test versus MS275: 7 melanoma cancer cell lines; conditions: in 3 cell lines of 7 melanoma cancer cell lines screened
Text: as §5

colon cancer cell lines = test: Comparison test versus MS275: 6 colon cancer cell lines; conditions: in 3 cell lines of 6 colon cancer cell lines screened
Text: as §3

KM-12 = test: Comparison test versus MS275: KM-12 (colon cancer); conditions: Homo sapiens, KM12, read-out: potency (quantity not named; values match GI50 of Table 1)
Text: as §3

OVCAR-8 = test: Screening against cancer cell lines: OVCAR-8 (Ovarian)
Text: as §1

LOX IMVI = test: Screening against cancer cell lines: LOX IMVI (Melanoma)
Text: as §1, §5

ACHN = test: Screening against cancer cell lines: ACHN (Renal)
Text: as §1, §2

RXF 393 = test: Screening against cancer cell lines: RXF 393 (Renal)
Text: as §1, §2

NCI-H522 = test: Screening against cancer cell lines: NCI-H522 (Non-Small Cell Lung)
Text: as §1
(§6) 8 non-small cell lung cancer cell lines were screened against both compound (4) and MS275.

cancer cell lines = test: Screening of benzamide derivatives against cancer cell lines (summary); conditions: summary of Tables 1 and 2
Text: as §1

[2] = test system: non-small cell lung cancer cell lines; test: Comparison test versus MS275: 8 non-small cell lung cancer cell lines; conditions: in 2 cell lines of 8 non-small cell lung cancer cell lines screened
Text: as §6

RPMI-8226 = test: Screening against cancer cell lines: RPMI-8226 (Leukaemia)
Text: as §1

SK-OV-3 = test: Comparison test versus MS275: SK-OV-3 (ovarian cancer); conditions: Homo sapiens, read-out: potency (quantity not named; values match GI50 of Table 1)
Text: (§7) 6 ovarian cancer cell lines were screened against both compound (4) and MS275.

SK-MEL-28 = test: Screening against cancer cell lines: SK-MEL-28 (Melanoma)
Text: as §1, §5

NCI/ADR-RES = test: Screening against cancer cell lines: NCI/ADR-RES (Breast)
Text: as §1, §4

MDA-MB-231/ATCC = test: Screening against cancer cell lines: MDA-MB-231/ATCC (Breast)
Text: as §1, §4

OVCAR-4 = test: Comparison test versus MS275: OVCAR-4 (ovarian cancer); conditions: Homo sapiens, read-out: potency (quantity not named; values match GI50 of Table 1)
Text: as §7

[3] = test system: ovarian cancer cell lines; test: Comparison test versus MS275: 6 ovarian cancer cell lines; conditions: in 3 cell lines of 6 ovarian cancer cell lines screened
Text: as §7

breast cancer cell lines = test: Comparison test versus MS275: 7 breast cancer cell lines; conditions: in 3 cell lines of 7 breast cancer cell lines screened
Text: as §4

NCI-H23 = test: Screening against cancer cell lines: NCI-H23 (Non-Small Cell Lung)
Text: as §1, §6

[4] = Homo sapiens, Renal, Table 1, read-out: GI50
[5] = Homo sapiens, Renal, Table 1, read-out: LC50 (the source's name)
[6] = Homo sapiens, renal cancer, comparison versus MS275, read-out: potency (quantity not named; values match GI50 of Table 1)
[7] = Homo sapiens, Table 1, read-out: LC50 (the source's name)
[8] = Homo sapiens, Breast, Table 1, read-out: GI50
[9] = Homo sapiens, Breast, Table 1, read-out: LC50 (the source's name)
[10] = Homo sapiens, breast cancer, comparison versus MS275, read-out: potency (quantity not named; values match GI50 of Table 1)

For C=C(CN1CCc2ccccc2C1)c1ccc(C(=O)Nc2ccccc2N)cc1 [Compound (4), N-(2-Amino-phenyl)-4-[1-(3,4-dihydroisoquinolin-2(1H)-ylmethyl)vinyl]benzamide], the GI50 (SN12C; [4]) was 629 nM, the CC50 (SN12C; [5]) was 27 µM and the GI50 (SN12C; [6]) was 630 nM. The TGI (SN12C; Renal, Table 1) was 2.7 µM, the TGI (HCT-15; HCT-15, Colon, Table 1) was 7.8 µM and the GI50 (HCT-15; Homo sapiens, HCT-15, Colon, Table 1, read-out: GI50) was 836 nM. For the same molecule, the CC50 (HCT-15; Homo sapiens, HCT-15, Colon, Table 1, read-out: LC50 (the source's name)) was over 50 µM, the GI50 (HCT-15; Homo sapiens, HCT-15, colon cancer, comparison versus MS275, read-out: potency (quantity not named; values match GI50 of Table 1)) was 840 nM and the TGI (HCC-2998; HCC-2998, Colon, Table 1) was 0.4 µM. For the same molecule, the GI50 (HCC-2998; Homo sapiens, HCC-2998, Colon, Table 1, read-out: GI50) was 90 nM, the CC50 (HCC-2998; Homo sapiens, HCC-2998, Colon, Table 1, read-out: LC50 (the source's name)) was 2000 nM and the GI50 (HCC-2998; Homo sapiens, HCC-2998, colon cancer, comparison versus MS275, read-out: potency (quantity not named; values match GI50 of Table 1)) was 90 nM. For the same molecule, the GI50 (SR; Homo sapiens, Table 1, read-out: GI50) was 484 nM, the CC50 (SR; [7]) was over 50 µM and the TGI (SR; Table 1) was “— (‘—’ indicates a concentration exceeding 50 μM.)”. The GI50 (MDA-MB-435; Homo sapiens, MDA-MB-435, Breast, Table 1, read-out: GI50) was 98 nM, the CC50 (MDA-MB-435; Homo sapiens, MDA-MB-435, Breast, Table 1, read-out: LC50 (the source's name)) was about 4 µM and the GI50 (MDA-MB-435; Homo sapiens, MDA-MB-435, breast cancer, comparison versus MS275, read-out: potency (quantity not named; values match GI50 of Table 1)) was 90 nM. The TGI (MDA-MB-435; MDA-MB-435, Breast, Table 1) was 0.6 µM, the “potency over MS275” value (renal cancer cell lines) was over 2 fold and the GI50 (UACC-62; Homo sapiens, Table 1) was 666 nM. For the same molecule, the CC50 (UACC-62; [7]) was 20.7 µM, the TGI (UACC-62; Table 1) was 2.9 µM and the GI50 (UACC-257; Homo sapiens, UACC-257, Melanoma, Table 1, read-out: GI50) was 499 nM. For the same molecule, the CC50 (UACC-257; Homo sapiens, UACC-257, Melanoma, Table 1, read-out: LC50 (the source's name)) was over 50 µM, the GI50 (UACC-257; Homo sapiens, UACC-257, melanoma, comparison versus MS275, read-out: potency (quantity not named; values match GI50 of Table 1)) was 500 nM and the TGI (UACC-257; UACC-257, Melanoma, Table 1) was 15.5 µM. For the same molecule, the “potency over MS275” value [1] was over 2 fold, the “potency over MS275” value (colon cancer cell lines) was over 2 fold and the GI50 (KM-12) was 1150 nM. For the same molecule, the GI50 (OVCAR-8; Homo sapiens, Table 1) was 768 nM, the CC50 (OVCAR-8; [7]) was over 50 µM and the TGI (OVCAR-8; Table 1) was 12.5 µM. For the same molecule, the GI50 (LOX IMVI; Homo sapiens, Melanoma, Table 1, read-out: GI50) was 99 nM, the CC50 (LOX IMVI; Homo sapiens, Melanoma, Table 1, read-out: LC50 (the source's name)) was 6.4 µM and the GI50 (LOX IMVI; Homo sapiens, melanoma, comparison versus MS275, read-out: potency (quantity not named; values match GI50 of Table 1)) was 90 nM. For the same molecule, the TGI (LOX IMVI; Melanoma, Table 1) was 0.6 µM, the GI50 (ACHN; [4]) was 844 nM and the CC50 (ACHN; [5]) was 14.4 µM. The GI50 (ACHN; [6]) was 840 nM, the TGI (ACHN; Renal, Table 1) was 2.8 µM and the GI50 (RXF 393; Homo sapiens, RXF 393, Renal, Table 1, read-out: GI50) was 102 nM. It also gave a CC50 (RXF 393; Homo sapiens, RXF 393, Renal, Table 1, read-out: LC50 (the source's name)) of 46 µM, a GI50 (RXF 393; Homo sapiens, RXF 393, renal cancer, comparison versus MS275, read-out: potency (quantity not named; values match GI50 of Table 1)) of 100 nM and a TGI (RXF 393; RXF 393, Renal, Table 1) of 0.6 µM. The GI50 (NCI-H522; Homo sapiens, NCI-H522, Non-Small Cell Lung, Table 1, read-out: GI50) was 220 nM, the CC50 (NCI-H522; Homo sapiens, NCI-H522, Non-Small Cell Lung, Table 1, read-out: LC50 (the source's name)) was 20.8 µM and the GI50 (NCI-H522; Homo sapiens, NCI-H522, non-small cell lung cancer, comparison versus MS275, read-out: potency (quantity not named; values match GI50 of Table 1)) was 220 nM. The TGI (NCI-H522; NCI-H522, Non-Small Cell Lung, Table 1) was 1.4 µM, the “activity against cancer cell lines (in words)” value (cancer cell lines) was “potently inhibited” and the “potency over MS275” value [2] was over 2 fold. The GI50 (RPMI-8226; Homo sapiens, Table 1) was 510 nM, the CC50 (RPMI-8226; [7]) was over 50 µM and the TGI (RPMI-8226; Table 1) was “— (‘—’ indicates a concentration exceeding 50 μM.)”. For the same molecule, the GI50 (SK-OV-3) was 1080 nM, the GI50 (SK-MEL-28; Homo sapiens, SK-MEL-28, Melanoma, Table 1, read-out: GI50) was 389 nM and the CC50 (SK-MEL-28; Homo sapiens, SK-MEL-28, Melanoma, Table 1, read-out: LC50 (the source's name)) was over 50 µM. For the same molecule, the GI50 (SK-MEL-28; Homo sapiens, SK-MEL-28, melanoma, comparison versus MS275, read-out: potency (quantity not named; values match GI50 of Table 1)) was 390 nM, the TGI (SK-MEL-28; SK-MEL-28, Melanoma, Table 1) was 6.5 µM and the TGI (NCI/ADR-RES; Breast, Table 1) was 2.0 µM. The GI50 (NCI/ADR-RES; [8]) was 613 nM, the CC50 (NCI/ADR-RES; [9]) was over 50 µM and the GI50 (NCI/ADR-RES; [10]) was 610 nM. It also gave a TGI (MDA-MB-231/ATCC; Breast, Table 1) of 2.7 µM, a GI50 (MDA-MB-231/ATCC; [8]) of 748 nM and a CC50 (MDA-MB-231/ATCC; [9]) of 19.2 µM. For the same molecule, the GI50 (MDA-MB-231/ATCC; [10]) was 750 nM, the GI50 (OVCAR-4) was 1910 nM and the “potency over MS275” value [3] was over 2 fold. The “potency over MS275” value (breast cancer cell lines) was over 2 fold, the GI50 (NCI-H23; Homo sapiens, NCI-H23, Non-Small Cell Lung, Table 1, read-out: GI50) was 178 nM and the CC50 (NCI-H23; Homo sapiens, NCI-H23, Non-Small Cell Lung, Table 1, read-out: LC50 (the source's name)) was 11.4 µM. For the same molecule, the GI50 (NCI-H23; Homo sapiens, NCI-H23, non-small cell lung cancer, comparison versus MS275, read-out: potency (quantity not named; values match GI50 of Table 1)) was 180 nM and the TGI (NCI-H23; NCI-H23, Non-Small Cell Lung, Table 1) was 1.5 µM.
